The record followed here is US20260285853A1, “COMPOUNDS AND METHODS FOR MODULATING SPLICING” (REMIX THERAPEUTICS INC., priority 2023, published 2026).

Holding throughout (assay type): cell-based
The test system of experiment [1] is MYB mRNA. Put plainly: Splicing RT-qPCR assay (THP), Table 2A. Conditions: Table 2A (THP); for AC50: AJ mRNA increase, read-out: MYB AJ (increase in alternative junction mRNA, AC50); for IC50: CJ mRNA decrease, read-out: MYB CJ (decrease in canonical junction mRNA, IC50).
The subject of experiment [2] is SH-SY5Y (human neuroblastoma) cells. Put plainly: Cell viability, Cell Titer Glo 2.0 assay. Particulars: read-out: Viability SHSY5Y.3 GI50. Put shortly: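 SH-SY5Y cells were exposed to serially diluted compounds in IMDM with 10% FBS and 0.1% DMSO for 72 hours at 37° C., 5% CO2. Viability was measured by CellTiter-Glo 2.0 luminescence, with medium-only wells as blank.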
In general terms: Cellular ATP, detected with luciferase, serves as a proxy for viable cell number.

Experiment [3] has as its system HTT mRNA. As to the kind of experiment: Splicing RT-qPCR assay (THP), Table 2A. Conditions: Table 2A (THP); for AC50: AJ mRNA increase, read-out: HTT AJ (increase in alternative junction mRNA, AC50); for IC50: CJ mRNA decrease, read-out: HTT CJ (decrease in canonical junction mRNA, IC50).
In experiment [4] the test system is MYB mRNA. Put plainly: Gene panel canonical junction qPCR assay, decrease in CJ mRNA, Table 3. Conditions: decrease in canonical junction (CJ) mRNA, gene panel qPCR, Table 3. The procedure, abridged:
(§1)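 Canonical exon-junction (CJ) transcript measured by 5′ nuclease RT-qPCR, normalized to GAPDH, GUSB or PPIA and to DMSO control (2^(−ΔΔCt)). A673 or K562 cells treated 24 h at 37° C with an 11-point 3-fold dilution series, top 10 uM, DMSO ≤0.25%. IC50 from 4-parameter logistic fit of percentage CJ decrease.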

Experiment [5] deals with HTT mRNA. The description is as above. Conditions: decrease in canonical junction (CJ) mRNA, gene panel qPCR, Table 3. Put shortly: as §1

The AC50 is the midpoint of the concentration-response curve, whichever way the signal moves. As a reminder, the IC50 is the concentration that inhibits the measured activity by half. As usually defined, the GI50 is the concentration giving 50% growth inhibition. Take `Cc1cc2cc(NC(=O)c3ccc(N4CCC(NC5CC5)CC4)c4cn(C)nc34)sc2c(C)n1` [Compound 483, 4-[4-(cyclopropyl-amino)-1-piperidyl]-N-(5,7-dimethyl-thieno[2,3-c]-pyridin-2-yl)-2-methyl-indazole-7-carboxamide]: the AC50 in experiment [1] and in experiment [3] was greater than 10 µM in each case. Besides, the IC50 in experiment [1], in experiment [3], in experiment [4] and in experiment [5] was greater than 10 µM throughout. In addition, the GI50 in experiment [2] was in the range of 0.1 to 1 µM.

Take `Cc1cc2cc(NC(=O)c3c(F)cc(N4CCC(NC5CC5)CC4)c4cn(C)nc34)sc2c(C)n1` [Compound 484, 4-[4-(cyclopropyl-amino)-1-piperidyl]-N-(5,7-dimethyl-thieno[2,3-c]pyridin-2-yl)-6-fluoro-2-methyl-indazole-7-carboxamide]: the AC50 in experiment [1] and in experiment [3] was greater than 10 µM in each case. The IC50 in experiment [1], in experiment [3], in experiment [4] and in experiment [5] was greater than 10 µM throughout. Also, the GI50 in experiment [2] lay within 1 to 10 µM.

As for `COc1cc2nn(C)cc2cc1NC(=O)c1ccc(N2CCC(NC3CC3)CC2)c2c(C)n(C)nc12` [Compound 485, 4-[4-(cyclopropylamino)-1-piperidyl]-N-(6-methoxy-2-methyl-indazol-5-yl)-2,3-dimethyl-indazole-7-carboxamide], the AC50 in experiment [1] and in experiment [3] was 0.1 to 1 µM in each case. Moreover, the IC50 in experiment [1], in experiment [3], in experiment [4] and in experiment [5] was 0.1 to 1 µM throughout. The GI50 in experiment [2] fell in the range of 0.1 to 1 µM.

With `Cc1cn2cc(NC(=O)c3ccc(N4CCC(NC5CC5)CC4)c4cn(C)nc34)nc2c(-c2ccns2)n1` [Compound 486, 4-(4-(cyclopropylamino)-piperidin-1-yl)-N-(8-(isothiazol-5-yl)-6-methyl-imidazo[1,2-a]-pyrazin-2-yl)-2-methyl-2H-indazole-7-carboxamide], the half-maximal activity concentration (AC50) in experiment [1] and in experiment [3] was greater than 10 µM each time. Besides, the IC50 in experiment [1], in experiment [3], in experiment [4] and in experiment [5] was greater than 10 µM throughout. Also, the GI50 in experiment [2] is 1 to 10 µM.

As to `Cc1cn2cc(NC(=O)c3ccc(N4CCC(NC5CC5)CC4)c4cn(C)nc34)nc2c(-c2ccn[nH]2)n1` [Compound 487, 4-(4-(cyclopropyl-amino)piperidin-1-yl)-2-methyl-N-(6-methyl-8-(1H-pyrazol-5-yl)imidazo[1,2-a]-pyrazin-2-yl)-2H-indazole-7-carboxamide 2,2,2-trifluoroacetate], the AC50 in experiment [1] and in experiment [3] was greater than 10 µM throughout. In addition, the IC50 in experiment [1] was greater than 10 µM; in experiment [3], 1 to 10 µM; in experiment [4], greater than 10 µM; in experiment [5], 1 to 10 µM. The GI50 in experiment [2] is 1 to 10 µM.

As for `COc1cn2nc(C)cc2cc1C(=O)Nc1ccc(N2CCNCC2)c2cn(C)nc12` [Compound 488, 6-methoxy-2-methyl-N-(2-methyl-4-piperazin-1-yl-indazol-7-yl) pyrazolo[1,5-a]pyridine-5-carboxamide], the AC50 in experiment [1] and in experiment [3] was greater than 10 µM in each case. Further, the IC50 in experiment [1], in experiment [3], in experiment [4] and in experiment [5] was greater than 10 µM each time. In addition, in experiment [2], the GI50 is greater than 10 µM.

With `COc1cc2nn(C)cc2cc1C(=O)Nc1ccc(N2CCNCC2)c2cn(C)nc12` [Compound 489, 6-methoxy-2-methyl-N-(2-methyl-4-piperazin-1-yl-indazol-7-yl)-indazole-5-carboxamide], the AC50 in experiment [1] and in experiment [3] was greater than 10 µM each time. Besides, the IC50 in experiment [1], in experiment [3], in experiment [4] and in experiment [5] was greater than 10 µM in each case. Moreover, the GI50 in experiment [2] is greater than 10 µM.

With `CC1OB(O)c2cc(NC(=O)c3c(F)cc(N4CCC(NC5CC5)CC4)c4cn(C)nc34)ccc21` (stereo not drawn) [Compound 490, 4-(4-(cyclopropylamino)piperidin-1-yl)-6-fluoro-N-(1-hydroxy-3-methyl-1,3-dihydrobenzo[c]-[1,2]oxaborol-6-yl)-2-methyl-2H-indazole-7-carboxamide 2,2,2-trifluoroacetate], the concentration at half-maximal activity (AC50) in experiment [1] and in experiment [3] was greater than 10 µM each time. Moreover, the IC50 in experiment [1] was 1 to 10 µM; in experiment [3], greater than 10 µM; in experiment [4], 1 to 10 µM; in experiment [5] it was greater than 10 µM. For the same compound, in experiment [2], the GI50 is 1 to 10 µM.

For the compound `Cc1cc2oc(NC(=O)c3c(F)cc(N4CCC(NC5CC5)CC4)c4cn(C)nc34)cc2c(C)n1` [Compound 491, 4-[4-(cyclopropylamino)-1-piperidyl]-N-(4,6-dimethyl-furo[3,2-c]pyridin-2-yl)-6-fluoro-2-methyl-indazole-7-carboxamide], the AC50 in experiment [1] and in experiment [3] was greater than 10 µM in each case. Also, the IC50 in experiment [1], in experiment [3], in experiment [4] and in experiment [5] was greater than 10 µM throughout. In experiment [2], the GI50 is 1 to 10 µM.

Turning to `Cc1cn2cc(NC(=O)c3ccc(N4CCC(NC5CC5)CC4)c4cn(C)nc34)nc2c(-c2cnsc2)n1` [Compound 492, 4-[4-(cyclopropylamino)-1-piperidyl]-N-(8-isothiazol-4-yl-6-methyl-imidazo[1,2-a]-pyrazin-2-yl)-2-methyl-indazole-7-carboxamide], the AC50 in experiment [1] and in experiment [3] was greater than 10 µM throughout. Moreover, the IC50 in experiment [1], in experiment [3], in experiment [4] and in experiment [5] was greater than 10 µM each time. The GI50 in experiment [2] was greater than 10 µM.

On to `CCNCC1CN(c2ccc(C(=O)Nc3cn4cc(C)nc(C)c4n3)c3nn(C)cc23)C1` [Compound 494, N-(6,8-dimethylimidazo[1,2-a]-pyrazin-2-yl)-4-[3-(ethylaminomethyl)azetidin-1-yl]-2-methyl-indazole-7-carboxamide], for which the AC50 in experiment [1] and in experiment [3] was greater than 10 µM in each case. Also, the IC50 in experiment [1], in experiment [3], in experiment [4] and in experiment [5] was greater than 10 µM throughout. For the same compound, in experiment [2], the GI50 is greater than 10 µM.

As to `Cc1nc(C)c2nc(NC(=O)c3ccc(N4CCC(NC5CC5)CC4)c4cn(C)nc34)cn2c1C` [Compound 495, 4-[4-(cyclopropyl-amino)-1-piperidyl]-2-meth-yl-N-(5,6,8-trimethylimi-dazo-[1,2-a]pyrazin-2-yl)-indazole-7-carboxamide], the AC50 in experiment [1] and in experiment [3] was 0.1 to 1 µM in each case. For the same compound, the IC50 in experiment [1], in experiment [3], in experiment [4] and in experiment [5] was 0.1 to 1 µM in each case. In experiment [2], the GI50 lay in the range of 0.1 to 1 µM.

In the case of `Cc1cn2cc(NC(=O)c3ccc(N4CC5(CNC5)C4)c4cn(C)nc34)nc2c(C)n1` [Compound 496], the values for the AC50 in experiment [1] and in experiment [3] were 0.1 to 1 µM and greater than 10 µM, respectively. The IC50 in experiment [1] was 1 to 10 µM; in experiment [3], greater than 10 µM; in experiment [4], 1 to 10 µM; in experiment [5], greater than 10 µM. Also, the GI50 in experiment [2] is greater than 10 µM.

Take `Cc1cn2cc(NC(=O)c3ccc(N4CC5(CNCCO5)C4)c4cn(C)nc34)nc2c(C)n1` [Compound 497]: the AC50 in experiment [1] and in experiment [3] was greater than 10 µM throughout. Moreover, the IC50 in experiment [1], in experiment [3], in experiment [4] and in experiment [5] was greater than 10 µM in each case. Also, in experiment [2], the GI50 is 1 to 10 µM.

Turning to `Cc1cn2cc(NC(=O)c3ccc(N4CC(C5CNC5)C4)c4cn(C)nc34)nc2c(C)n1` [Compound 498], the AC50 in experiment [1] and in experiment [3] was greater than 10 µM throughout. The IC50 in experiment [1], in experiment [3], in experiment [4] and in experiment [5] was greater than 10 µM in each case. Also, the GI50 in experiment [2] was greater than 10 µM.

Regarding `Cc1cn2cc(NC(=O)c3ccc(N4CC(C5CCNCC5)C4)c4cn(C)nc34)nc2c(C)n1` [Compound 499], the AC50 in experiment [1] and in experiment [3] was 1 to 10 µM each time. The IC50 in experiment [1], in experiment [3], in experiment [4] and in experiment [5] was 1 to 10 µM throughout. Also, in experiment [2], the GI50 was 1 to 10 µM.

With `Cc1cn2cc(NC(=O)c3ccc(N4CC(N5CCNCC5)C4)c4cn(C)nc34)nc2c(C)n1` [Compound 500], the AC50 in experiment [1] and in experiment [3] was greater than 10 µM each time. The IC50 in experiment [1], in experiment [3], in experiment [4] and in experiment [5] was greater than 10 µM throughout. The GI50 in experiment [2] is greater than 10 µM.

With `CNC1CCN(c2ccc(C(=O)Nc3cn4cc(C)nc(C)c4n3)c3nn(C)cc23)C1` (stereo not drawn) [Compound 505], the AC50 in experiment [1] and in experiment [3] was 0.1 to 1 µM each time. For the same compound, the IC50 in experiment [1], in experiment [3], in experiment [4] and in experiment [5] was 0.1 to 1 µM each time. Further, the GI50 in experiment [2] fell in the range of 0.1 to 1 µM.
